Active and inactive are the calls of the source. The rule behind the calls is not given here.
Columns and labels:
[1] = tested on: Mycobacterium tuberculosis; test: Ratio of MIC for Mycobacterium tuberculosis H37Rv in presence of D-Alanine to MIC for Mycobacterium tuberculosis H37Rv; type: functional
[2] = tested on: Mycobacterium tuberculosis; test: Reduction in intracellular total Alanine pool size in Mycobacterium tuberculosis H37Rv at MIC by filter-based mass spectrometry technique; type: functional, organism-based
[3] = tested on: Mycobacterium tuberculosis; test: Reduction in intracellular dipeptide D-alanyl-D-alanine pool size in Mycobacterium tuberculosis H37Rv at MIC by filter-based mass spectrometry technique; type: functional, organism-based
[4] = tested on: Mycobacterium tuberculosis; test: Antimycobacterial activity against Mycobacterium tuberculosis H37Rv at 0.25 to 16 times MIC after 7 days in presence of L-Alanine; type: functional, organism-based
[5] = tested on: Mycobacterium tuberculosis; test: Antimycobacterial activity against Mycobacterium tuberculosis H37Rv at 0.25 to 16 times MIC after 7 days in presence of D-Alanine; type: functional, organism-based
[6] = target: T1, D-alanine--D-alanine ligase (Mycobacterium tuberculosis) (UniProt P9WP31); test: Competitive inhibition of D-alanine-D-alanine ligase in Mycobacterium tuberculosis H37Rv at MIC preincubated for 16 hrs followed by D-Ala-[2H] addition measured over 8 hrs by LC-MS/MS analysis
T1 sequence (whole entry): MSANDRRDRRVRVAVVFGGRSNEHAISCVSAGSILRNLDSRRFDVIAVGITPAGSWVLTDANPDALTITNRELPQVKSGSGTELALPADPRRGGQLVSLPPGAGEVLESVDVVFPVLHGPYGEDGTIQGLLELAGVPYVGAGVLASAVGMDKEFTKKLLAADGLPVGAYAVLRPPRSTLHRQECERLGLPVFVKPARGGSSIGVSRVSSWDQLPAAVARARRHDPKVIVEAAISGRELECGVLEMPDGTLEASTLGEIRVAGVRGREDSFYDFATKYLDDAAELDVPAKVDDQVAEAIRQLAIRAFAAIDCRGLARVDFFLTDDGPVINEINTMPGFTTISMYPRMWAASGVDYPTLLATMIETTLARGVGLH

[7] = target: T2, Alanine racemase (Mycobacterium tuberculosis) (UniProt P9WQA9); test: Inhibition of alanine racemase in Mycobacterium tuberculosis H37Rv at 5 times MIC preincubated for 16 hrs followed by compound re-addition with L-Ala-[13C]-[3H] measured over 8 hrs by LC-MS/MS analysis
T2 sequence (whole entry): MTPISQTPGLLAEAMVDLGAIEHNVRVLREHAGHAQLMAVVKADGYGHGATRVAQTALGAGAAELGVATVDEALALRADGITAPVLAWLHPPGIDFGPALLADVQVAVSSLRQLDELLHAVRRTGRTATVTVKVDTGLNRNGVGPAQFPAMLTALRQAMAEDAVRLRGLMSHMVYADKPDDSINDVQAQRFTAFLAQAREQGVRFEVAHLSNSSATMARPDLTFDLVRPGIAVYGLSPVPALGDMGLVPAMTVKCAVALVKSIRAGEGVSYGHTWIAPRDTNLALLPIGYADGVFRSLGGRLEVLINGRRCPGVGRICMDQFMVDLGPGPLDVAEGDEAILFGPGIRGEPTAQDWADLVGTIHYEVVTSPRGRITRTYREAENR

[8] = target: T1, D-alanine--D-alanine ligase (Mycobacterium tuberculosis); test: Inhibition of D-alanine-D-alanine ligase in Mycobacterium tuberculosis H37Rv assessed as inhibition of denovo D-Alanyl-D-alanine synthesis at 2 times MIC preincubated for 16 hrs followed L-Ala-[13C]-[3H] addition measured over 8 hrs by LC-MS/MS analysis
[9] = target: T1, D-alanine--D-alanine ligase (Mycobacterium tuberculosis); test: Inhibition of D-alanine-D-alanine ligase in Mycobacterium tuberculosis H37Rv assessed as inhibition of denovo D-Alanyl-D-alanine synthesis at MIC preincubated for 16 hrs followed by L-Ala-[13C]-[3H] addition measured over 8 hrs by LC-MS/MS analysis
[10] = tested on: Mycobacterium tuberculosis; test: Reduction in intracellular total Alanine pool size in Mycobacterium tuberculosis H37Rv at 0.25 to 5 times MIC by filter-based technique; type: functional, organism-based
[11] = tested on: Mycobacterium tuberculosis; test: Reduction in intracellular dipeptide D-alanyl-D-alanine pool size in Mycobacterium tuberculosis H37Rv up to 5 times MIC by filter-based mass spectrometry technique; type: functional, organism-based
[12] = target: T1, D-alanine--D-alanine ligase (Mycobacterium tuberculosis); test: Inhibition of D-alanine-D-alanine ligase in Mycobacterium tuberculosis H37Rv assessed as depletion in D-Alanyl-D-alanine level preincubated for 16 hrs measured post 24 hrs of compound washout
[13] = Drug metabolism in Mycobacterium tuberculosis H37Rv assessed as compound remaining at 0.25 to 5 times MIC for 16 hrs measured 15 to 60 mins post compound washout; type: ADME, organism-based; settings: Mycobacterium tuberculosis H37Rv cells, read-out: Stability

In the case of `N[C@H]1CONC1=O` [LEVCYCLOSERINE], the Ratio [1] is reported as 4, the Activity [2] is reported as “Active” and the Activity [3] is reported as “Active”. The Activity [4] was “inactive” and the Activity [5] was “inactive”.
In the case of `N[C@@H]1CONC1=O` [CYCLOSERINE], the Ratio [1] is reported as 2, the Activity [6] is reported as “inactive” and the inhibition [7] is reported as “inactive”. The inhibition [8] was “Active”, the inhibition [9] was “Active” and the Activity [10] was “Active”. For the same molecule, the Activity [11] was “Dose-dependent effect”, the inhibition [12] was “Dose-dependent effect” and the Activity [4] was “Active”. The Activity [5] was “inactive”.
With `CN[C@@H]1[C@H](O[C@H]2[C@H](O[C@H]3[C@H](O)[C@@H](O)[C@H](N=C(N)N)[C@@H](O)[C@@H]3N=C(N)N)O[C@@H](C)[C@]2(O)C=O)O[C@@H](CO)[C@H](O)[C@H]1O` the Activity [11] was “inactive”.
With `N[C@@H]1CON=C1O` [CYCLOSERINE] the remaining at 16 h [13] was less than 10%.

Reference: ChEMBL document CHEMBL3124766, “Metabolomics Reveal d-Alanine:d-Alanine Ligase As the Target of d-Cycloserine in Mycobacterium tuberculosis” (ACS Med Chem Lett, 2013)
